Assay results as given in patent US20110306639A1, “HYDROCARBYLIDENE NITROHYDROZINECARBOXIMIDAMIDES AND A METHOD FOR MAKING THE SAME, AS WELL AS THEIR USES AS AN INSECTICIDE” (priority 2008, published 2011).
Read-outs that look alike come from different tables or passages of the source.

What was measured:
[1] = tested on: Helicoverpa armigera
[2] = tested on: asparagus caterpillar
[3] = tested on: myzus persicae; conditions: for numbers of death/total numbers: 24 h
[4] = tested on: bemisia tabaci gennadius
[5] = tested on: hyalopterus pruni; conditions: 24 h
[6] = tested on: aphis gossypii; conditions: 24 h

Question: For O=[N+]([O-])N=C(NCc1ccc(Cl)nc1)NN=Cc1ccccc1 [Compound 110], which “mortality(%) Helicoverpa armigera (500 μg/mL)” value ([1]; 500 μg/mL, 48 hours) is on record?
Answer: 0%

Question: And the “mortality(%) asparagus caterpillar (500 μg/mL)” value ([2]; 500 μg/mL, 48 hours)?
Answer: 30%

Question: What about the “mortality(%) myzus persicae (600 μg/mL)” value ([3]; 600 μg/mL) of the same compound?
Answer: 92.8%

Question: And the “mortality(%) bemisia tabaci gennadius (500 μg/mL)” value ([4]; 500 μg/mL, 48 hours)?
Answer: 6.67%

Question: How did the “mortality(%) bemisia tabaci gennadius (500 μg/mL)” value ([4]; in vivo) turn out when CCNC(=N[N+](=O)[O-])NN=Cc1ccc(OC)cc1 [Compound 127] was run?
Answer: 24.56%

Question: How did the “mortality(%) Helicoverpa armigera (500 μg/mL)” value ([1]; in vivo) turn out when O=[N+]([O-])N=C(NCc1ccc(Cl)nc1)NN=Cc1ccc(F)cc1 [Compound 114] was run?
Answer: 40%

Question: What about the “mortality(%) asparagus caterpillar (500 μg/mL)” value ([2]; in vivo) of the same compound?
Answer: 70%

Question: And the “mortality(%) myzus persicae (600 μg/mL)” value ([3]; in vivo)?
Answer: 72.3%

Question: And the “mortality(%) bemisia tabaci gennadius (500 μg/mL)” value ([4]; in vivo)?
Answer: 2.04%

Question: CNC(=N[N+](=O)[O-])NN=Cc1ccc(OC)cc1 [Compound 121] was tested. Which “mortality(%) bemisia tabaci gennadius (500 μg/mL)” value ([4]; in vivo) did it give?
Answer: 16.95%

Question: What does the source list for O=[N+]([O-])N=C(NCc1ccc(Cl)nc1)NN=Cc1ccco1 [Compound 115]?
Answer: mortality(%) Helicoverpa armigera (500 μg/mL) ([1]; in vivo): 10%; mortality(%) asparagus caterpillar (500 μg/mL) ([2]; in vivo): 80%; mortality(%) myzus persicae (600 μg/mL) ([3]; in vivo): 86.0%; mortality(%) bemisia tabaci gennadius (500 μg/mL) ([4]; in vivo): 9.30%

Question: With CCCCC=NNC(=N[N+](=O)[O-])NCc1ccc(Cl)nc1 [Compound 56] as the compound, how does the “mortality(%) Helicoverpa armigera (500 μg/mL)” value ([1]; in vivo) read?
Answer: 70%

Question: What about the “mortality(%) asparagus caterpillar (500 μg/mL)” value ([2]; in vivo) of the same compound?
Answer: 20%

Question: And the “numbers of death/total numbers” value ([5]; 25 μg/mL)?
Answer: 100/104

Question: What about the “numbers of death/total numbers” value ([5]; 50 μg/mL) of the same compound?
Answer: 96/101

Question: And the “numbers of death/total numbers” value ([5]; 100 μg/mL)?
Answer: 121/121

Question: And the “numbers of death/total numbers” value ([5]; 200 μg/mL)?
Answer: 101/101

Question: And the “numbers of death/total numbers” value ([5]; 400 μg/mL)?
Answer: 103/103

Question: And the “numbers of death/total numbers” value ([3]; 25 μg/mL)?
Answer: 104/104

Question: And the “numbers of death/total numbers” value ([3]; 50 μg/mL)?
Answer: 96/99

Question: What about the “numbers of death/total numbers” value ([3]; 100 μg/mL) of the same compound?
Answer: 149/149

Question: And the “numbers of death/total numbers” value ([3]; 200 μg/mL)?
Answer: 81/81

Question: What about the “numbers of death/total numbers” value ([3]; 400 μg/mL) of the same compound?
Answer: 77/77

Question: And the “mortality(%) myzus persicae (600 μg/mL)” value ([3]; in vivo)?
Answer: 100%

Question: And the “numbers of death/total numbers” value ([6]; 3.13 μg/mL)?
Answer: 121/157

Question: What about the “numbers of death/total numbers” value ([6]; 12.5 μg/mL) of the same compound?
Answer: 136/164

Question: And the “numbers of death/total numbers” value ([6]; 50 μg/mL)?
Answer: 166/178

Question: With CNC(=N[N+](=O)[O-])NN=Cc1ccc(F)cc1 [Compound 123] as the compound, how does the “mortality(%) bemisia tabaci gennadius (500 μg/mL)” value ([4]; in vivo) read?
Answer: 4.69%

Question: With CNC(=N[N+](=O)[O-])NN=Cc1ccccc1Cl [Compound 117] as the compound, how does the “mortality(%) bemisia tabaci gennadius (500 μg/mL)” value ([4]; in vivo) read?
Answer: 17.78%

Question: For COc1ccc(C=NNC(=N[N+](=O)[O-])NCc2ccc(Cl)nc2)cc1 [Compound 112], which “mortality(%) Helicoverpa armigera (500 μg/mL)” value ([1]; in vivo) is on record?
Answer: 10%

Question: And the “mortality(%) asparagus caterpillar (500 μg/mL)” value ([2]; in vivo)?
Answer: 90%

Question: And the “mortality(%) myzus persicae (600 μg/mL)” value ([3]; in vivo)?
Answer: 54.4%

Question: What about the “mortality(%) bemisia tabaci gennadius (500 μg/mL)” value ([4]; in vivo) of the same compound?
Answer: 3.77%

Question: With CNC(=N[N+](=O)[O-])NN=Cc1cccc(Oc2ccccc2)c1 [Compound 118] as the compound, how does the “mortality(%) bemisia tabaci gennadius (500 μg/mL)” value ([4]; in vivo) read?
Answer: 14.81%

Question: Which “mortality(%) bemisia tabaci gennadius (500 μg/mL)” value ([4]; in vivo) does the source give for CCNC(=N[N+](=O)[O-])NN=Cc1ccccc1Cl [Compound 125] here?
Answer: 53.06%

Question: Which “mortality(%) bemisia tabaci gennadius (500 μg/mL)” value ([4]; in vivo) does the source give for CNC(=N[N+](=O)[O-])NN=Cc1ccco1 [Compound 124] here?
Answer: 88.68%

Question: With CNC(=N[N+](=O)[O-])NN=Cc1ccc(N(C)C)cc1 [Compound 120] as the compound, how does the “mortality(%) bemisia tabaci gennadius (500 μg/mL)” value ([4]; in vivo) read?
Answer: 82.76%

Question: For CCNC(=N[N+](=O)[O-])NN=Cc1ccc(F)cc1 [Compound 129], which “mortality(%) bemisia tabaci gennadius (500 μg/mL)” value ([4]; in vivo) is on record?
Answer: 8.62%

Question: How did the “mortality(%) bemisia tabaci gennadius (500 μg/mL)” value ([4]; in vivo) turn out when O=[N+]([O-])N=C(NCc1ccccc1)NN=Cc1ccc(F)cc1 [Compound 133] was run?
Answer: 3.77%

Question: CCCNC(=N[N+](=O)[O-])NN=Cc1ccc(OC)cc1 [Compound 130] was tested. Which “mortality(%) bemisia tabaci gennadius (500 μg/mL)” value ([4]; in vivo) did it give?
Answer: 18.46%

Question: Which “mortality(%) Helicoverpa armigera (500 μg/mL)” value ([1]; in vivo) does the source give for CCCCCCC=NNC(=N[N+](=O)[O-])NCc1ccc(Cl)nc1 [Compound 50] here?
Answer: 20%

Question: What about the “mortality(%) asparagus caterpillar (500 μg/mL)” value ([2]; in vivo) of the same compound?
Answer: 0%

Question: And the “numbers of death/total numbers” value ([5]; 25 μg/mL)?
Answer: 104/108

Question: What about the “numbers of death/total numbers” value ([5]; 50 μg/mL) of the same compound?
Answer: 98/102

Question: And the “numbers of death/total numbers” value ([5]; 100 μg/mL)?
Answer: 101/101

Question: What about the “numbers of death/total numbers” value ([5]; 200 μg/mL) of the same compound?
Answer: 110/110

Question: And the “numbers of death/total numbers” value ([5]; 400 μg/mL)?
Answer: 102/102

Question: And the “numbers of death/total numbers” value ([3]; 25 μg/mL)?
Answer: 78/78

Question: And the “numbers of death/total numbers” value ([3]; 50 μg/mL)?
Answer: 91/92

Question: And the “numbers of death/total numbers” value ([3]; 100 μg/mL)?
Answer: 87/87

Question: And the “numbers of death/total numbers” value ([3]; 200 μg/mL)?
Answer: 103/107

Question: And the “numbers of death/total numbers” value ([3]; 400 μg/mL)?
Answer: 96/96

Question: And the “mortality(%) myzus persicae (600 μg/mL)” value ([3]; in vivo)?
Answer: 100%

Question: And the “numbers of death/total numbers” value ([6]; 3.13 μg/mL)?
Answer: 156/157

Question: What about the “numbers of death/total numbers” value ([6]; 12.5 μg/mL) of the same compound?
Answer: 150/150

Question: And the “numbers of death/total numbers” value ([6]; 50 μg/mL)?
Answer: 245/245

Question: With CCOc1ccc(C=NNC(=N[N+](=O)[O-])NCc2ccc(Cl)nc2)cc1OC [Compound 134] as the compound, how does the “mortality(%) bemisia tabaci gennadius (500 μg/mL)” value ([4]; in vivo) read?
Answer: 1.82%

Question: For COc1ccc(C=NNC(=N[N+](=O)[O-])NCc2ccccc2)cc1 [Compound 131], which “mortality(%) bemisia tabaci gennadius (500 μg/mL)” value ([4]; in vivo) is on record?
Answer: 1.89%

Question: Which results are given for C=CCNC(=N[N+](=O)[O-])NN=Cc1ccccc1Cl [Compound 93]?
Answer: mortality(%) Helicoverpa armigera (500 μg/mL) ([1]; in vivo): 40%; mortality(%) asparagus caterpillar (500 μg/mL) ([2]; in vivo): 70%; numbers of death/total numbers ([5]; 25 μg/mL): 102/112; numbers of death/total numbers ([5]; 50 μg/mL): 104/108; numbers of death/total numbers ([5]; 100 μg/mL): 103/103; numbers of death/total numbers ([5]; 200 μg/mL): 110/110; numbers of death/total numbers ([5]; 400 μg/mL): 103/103; numbers of death/total numbers ([3]; 25 μg/mL): 112/112; numbers of death/total numbers ([3]; 50 μg/mL): 94/98; numbers of death/total numbers ([3]; 100 μg/mL): 104/104; numbers of death/total numbers ([3]; 200 μg/mL): 114/114; numbers of death/total numbers ([3]; 400 μg/mL): 93/93; mortality(%) myzus persicae (600 μg/mL) ([3]; in vivo): 96.0%; numbers of death/total numbers ([6]; 3.13 μg/mL): 178/186; numbers of death/total numbers ([6]; 12.5 μg/mL): 124/124; numbers of death/total numbers ([6]; 50 μg/mL): 138/138

Question: CCNC(=N[N+](=O)[O-])NN=Cc1ccc(OCC)c(OC)c1 [Compound 126] was tested. Which “mortality(%) bemisia tabaci gennadius (500 μg/mL)” value ([4]; in vivo) did it give?
Answer: 6.67%

Question: For O=[N+]([O-])N=C(NCc1ccc(Cl)nc1)NN=Cc1ccccc1Cl [Compound 111], which “mortality(%) Helicoverpa armigera (500 μg/mL)” value ([1]; in vivo) is on record?
Answer: 0%

Question: And the “mortality(%) asparagus caterpillar (500 μg/mL)” value ([2]; in vivo)?
Answer: 40%

Question: And the “mortality(%) myzus persicae (600 μg/mL)” value ([3]; in vivo)?
Answer: 22.0%

Question: What about the “mortality(%) bemisia tabaci gennadius (500 μg/mL)” value ([4]; in vivo) of the same compound?
Answer: 13.89%

Question: CCCCNC(=N[N+](=O)[O-])NN=CC=C(C)CCC=C(C)C [Compound 19] was tested. Which “mortality(%) Helicoverpa armigera (500 μg/mL)” value ([1]; in vivo) did it give?
Answer: 40%

Question: And the “mortality(%) asparagus caterpillar (500 μg/mL)” value ([2]; in vivo)?
Answer: 60%

Question: And the “mortality(%) myzus persicae (600 μg/mL)” value ([3]; in vivo)?
Answer: 67.5%

Question: Which “mortality(%) Helicoverpa armigera (500 μg/mL)” value ([1]; 500 μg/mL, 48 hours) does the source give for CCCCNC(=N[N+](=O)[O-])NN=Cc1ccccc1OC [Compound 74] here?
Answer: 0%

Question: What about the “mortality(%) asparagus caterpillar (500 μg/mL)” value ([2]; in vivo) of the same compound?
Answer: 30%

Question: And the “mortality(%) myzus persicae (600 μg/mL)” value ([3]; in vivo)?
Answer: 40.4%

Question: How did the “mortality(%) Helicoverpa armigera (500 μg/mL)” value ([1]; in vivo) turn out when CC(C)=CCCC(C)=CC=NNC(=N[N+](=O)[O-])NCc1ccccc1 [Compound 22] was run?
Answer: 20%

Question: And the “mortality(%) asparagus caterpillar (500 μg/mL)” value ([2]; in vivo)?
Answer: 20%

Question: And the “mortality(%) myzus persicae (600 μg/mL)” value ([3]; in vivo)?
Answer: 7.1%

Question: How did the “mortality(%) bemisia tabaci gennadius (500 μg/mL)” value ([4]; 500 μg/mL, 48 hours) turn out when CNC(=N[N+](=O)[O-])NN=Cc1ccccc1OC [Compound 119] was run?
Answer: 72.00%

Question: What does the source list for CCCCNC(=N[N+](=O)[O-])NN=Cc1ccc(OCC)c(OC)c1 [Compound 97]?
Answer: mortality(%) Helicoverpa armigera (500 μg/mL) ([1]; in vivo): 40%; mortality(%) asparagus caterpillar (500 μg/mL) ([2]; in vivo): 70%; mortality(%) myzus persicae (600 μg/mL) ([3]; in vivo): 35.8%
